# Literature values in patent US12440455B2, “Methods of administering cannabinoids” (IMPACT NATURALS, INC., priority 2022, dated 2025).
# Tests used:
# SARS-CoV-2 = details: Nguyen et al., Sci. Adv. 8, eabi6110 (2022)
# CB2 = CB2 (Homo sapiens, UniProt P34972); details: WHO assessment
# Sequence of CB2 (P34972 whole entry, species assumed): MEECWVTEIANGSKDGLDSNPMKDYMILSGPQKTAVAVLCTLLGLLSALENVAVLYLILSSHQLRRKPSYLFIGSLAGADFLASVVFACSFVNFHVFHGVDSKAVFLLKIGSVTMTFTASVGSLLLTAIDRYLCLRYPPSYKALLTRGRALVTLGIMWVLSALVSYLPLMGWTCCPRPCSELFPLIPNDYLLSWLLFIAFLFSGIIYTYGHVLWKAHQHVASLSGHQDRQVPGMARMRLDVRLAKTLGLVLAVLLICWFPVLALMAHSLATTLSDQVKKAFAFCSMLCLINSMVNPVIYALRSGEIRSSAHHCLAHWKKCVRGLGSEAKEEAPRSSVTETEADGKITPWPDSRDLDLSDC
smiles,measurement,setting,value
C=C(C)[C@@H]1CCC(C)=C[C@H]1c1c(O)cc(CCCCC)cc1O [Cannabidiol],aqueous solubility,,approximately 0.013 milligrams per milliliter
same,inhibition of SARS-CoV-2 replication,SARS-CoV-2,inhibit SARS-CoV-2 replication
same,affinity to CB2,CB2,low affinity
